Test results from patent US8114850B2, “Antiproliferative activity of G-rich oligonucleotides and method of using same to bind to nucleolin” (Advanced Cancer Therapeutics, LLC, priority 1999, dated 2012).

Experiments:
[1] = test system: advanced, metastatic RCC (renal-cell carcinoma); experiment: Phase 1 study, RCC patients; type: in vivo, human
Method: (§1) A Phase 1, open label, non-randomized dose escalation study of SEQ ID NO:12 was conducted on 17 human individuals with various advanced malignancies. […] After these 17 individuals had received treatment, only individuals with RCC (renal-cell carcinoma) or non-small-cell lung cancer (NSCLC) were enrolled in the clinical trial to obtain data for more homogenous patient populations and thereby enhance the quality of the results.
Following these findings, the trial was extended to include additional individuals (“patients”) with RCC (renal-cell carcinoma) or non-small-cell lung cancer. All of said individuals had progressive, metastatic cancers upon entry to the study. It should be noted that none of the individuals had received chemotherapy, radiotherapy or any investigational agent for cancer within the 4 weeks prior to entry to the study or 6 weeks prior for nitrosourea or mitomycin C. All individuals enrolled in the study were evaluable for toxicity and response and had measurable disease, i.e. able to be measured accurately in one or more dimension(s). Participants of the study were recruited at one site: the University of Louisville, James Brown Cancer Center, in Louisville, Ky., USA. The study was conducted in accordance with Good Clinical Practices and the Declaration of Helsinki. Institutional Review Board approval and informed patient consent were obtained before the study began.
(§2) The SEQ ID NO:12 aptamer was administered to individuals as a continuous intravenous infusion. All individuals received one or two cycles of treatment. The dose escalation protocol provided a division of the subjects into cohorts of 3 in sequential order. If no individuals in a cohort experienced DLT within […] of treatment, the dosage was escalated to the next level. The dosage was increased up to 10 mg/kg/day for 7 days in the first 17 individuals and increased up to 40 mg/kg/day for 7 days in the RCC/NSCLC extension. The original starting dose was about 1 mg/kg/day for 4 days for both sets of individuals.
If no subject in the first cohort experienced DLT within 14 days of treatment, the dose for the next cohort was escalated to the next level. […] For this study, DLT was identified as grade 3-4 non-hematological toxicity, grade 4 hematological toxicity that persisted for 3 or more days, grade 4 febrile neutropenia, or grade 4 thrombocytopenia with bleeding. Toxicity was graded according to the National Cancer Institute Common Terminology for Adverse Events (“NCI-CTCAE”) version 3.0.
Dose escalation was accomplished by doubling until a biological effect was noted (i.e., by development of NCI-CTCAE grade 2 toxicity), at which point the dose was escalated using a modified Fibonacci design (dose increments to 1.6 times the pervious dose level). The maximum dose for the study was 40 mg/kg/day.
(§3) Baseline evaluations included medical history, 12-lead electrocardiogram, safety assessments and tumor measurements within 1 week of the start of the study. Individuals were monitored in the hospital during infusion of the SEQ ID NO:12 aptamer (days 1-8) and then evaluated subsequently on days 15, 29 and 58.
Efficacy was assessed by tumor measurements and radiological evaluation at baseline ([…] to the start of the study), at day 29 and day 58.
Tumor measurements were conducted using photographs (skin lesions), chest X-rays, CT scans, magnetic resonance imaging (MRI) and ultrasound. The assessments of tumor measurements were conducted using the Response Evaluation Criteria in Solid Tumors (RECIST) guidelines. See Arbuck et al., (2000) Journal Nat'l Cancer Inst., 92: 205-16. All tumor measurements were taken in metric notation using a ruler or caliper.
As a preliminary note, tumor response was evaluated using RECIST guidelines and categorized as complete response (CR), partial response (PR), stable disease (SD) or progressive disease (PD). […]

[2] = target: T1, G-rich oligonucleotide binding protein / nucleolin (Homo sapiens, UniProt P19338); experiment: Protein binding, summary statements (EMSA); settings: characterization of the aptamer
T1 construct: endogenous in cells; MDA-MB-231)
T1 sequence (P19338 whole entry): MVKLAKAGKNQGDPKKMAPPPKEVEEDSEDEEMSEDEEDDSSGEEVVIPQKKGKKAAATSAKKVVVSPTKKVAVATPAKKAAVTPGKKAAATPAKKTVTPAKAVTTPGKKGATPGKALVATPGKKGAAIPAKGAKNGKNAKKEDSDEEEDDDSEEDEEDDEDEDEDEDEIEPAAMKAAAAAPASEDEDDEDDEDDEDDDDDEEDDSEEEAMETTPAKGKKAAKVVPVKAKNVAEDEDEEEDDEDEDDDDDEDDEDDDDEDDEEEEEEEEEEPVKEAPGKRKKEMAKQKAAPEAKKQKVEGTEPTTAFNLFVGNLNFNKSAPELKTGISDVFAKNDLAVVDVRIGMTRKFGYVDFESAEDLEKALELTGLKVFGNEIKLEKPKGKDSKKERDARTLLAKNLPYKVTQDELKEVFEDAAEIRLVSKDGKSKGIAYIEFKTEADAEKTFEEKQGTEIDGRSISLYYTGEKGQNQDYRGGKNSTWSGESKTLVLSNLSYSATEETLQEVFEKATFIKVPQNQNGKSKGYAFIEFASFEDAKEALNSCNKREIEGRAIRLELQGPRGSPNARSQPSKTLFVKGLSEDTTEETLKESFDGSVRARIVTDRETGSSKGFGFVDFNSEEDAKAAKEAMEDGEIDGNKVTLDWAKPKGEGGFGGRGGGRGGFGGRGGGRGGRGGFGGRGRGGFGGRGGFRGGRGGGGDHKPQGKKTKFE
Text: By G-rich oligonucleotide (GRO) it is meant that the oligonucleotides consist of 4-100 nucleotides (preferably 10-30 nucleotides) with DNA, RNA, 2′-O-methyl, phosphorothioate or other chemically similar backbones. Their sequences contain one or more GGT motifs. The oligonucleotides have antiproliferative activity against cells and bind to GRO binding protein and/or nucleolin.
Additionally, the present invention provides a method for selecting oligonucleotides that bind to nucleolin. The method utilizes an electrophoretic mobility shift assay (EMSA), as described below, to screen for oligonucleotides that bind strongly to nucleolin and which, therefore, would be expected, according to the present invention, to have anti-proliferative activity. Oligonucleotides to be screened as potential antiproliferative agents are labeled and then incubated with nuclear extracts in the absence or presence of unlabeled competitor oligonucleotide and are allowed to react. The reaction mixtures are then electrophoresed and mobility shifts and/or bond intensity can be used to identify those oligonucleotides which have bound to the specific protein.
Alternatively, unlabeled compounds to be screened are incubated with nuclear extracts in the presence of labeled oligonucleotide (for example 5′-TTAGGGTTAGGGTTAGGG TTAGGG) (SEQ ID NO: 20) and binding is assessed by a decrease in the intensity of the shifted band, as in FIG. 6B.

Phase 1 study, toxicity = type: in vivo, human; settings: doses up to 40 mg/kg/day for up to 7 days, continuous i.v. infusion
Method: as §2
If no subject in the first cohort experienced DLT within 14 days of treatment, the dose for the next cohort was escalated to the next level. […] For this study, DLT was identified as grade 3-4 non-hematological toxicity, grade 4 hematological toxicity that persisted for 3 or more days, grade 4 febrile neutropenia, or grade 4 thrombocytopenia with bleeding. […]
as §3

[3] = test system: non-small-cell lung cancer (NSCLC); experiment: Phase 1 study, NSCLC patients; type: in vivo, human; settings: RECIST
Method: as §1
Following these findings, the trial was extended to include additional individuals (“patients”) with RCC (renal-cell carcinoma) or non-small-cell lung cancer. All of said individuals had progressive, metastatic cancers upon entry to the study. […] All individuals enrolled in the study were evaluable for toxicity and response and had measurable disease, i.e. able to be measured accurately in one or more dimension(s). […]
as §3
Efficacy was assessed by tumor measurements and radiological evaluation at baseline ([…] to the start of the study), at day 29 and day 58. […]

tumor cells = experiment: In-vitro experiments with SEQ ID NO:12 in tumor cells; type: cell-based
Text: SEQ ID NO: 12, a G-rich oligonucleotide (GRO) aptamer comprising a single-strand oligonucleotide of 26 bases, was selected for the study. […] Preclinical data indicates potential of SEQ ID NO: 12 against a wide variety of solid and hematologic malignancies.

Stability in serum = type: in vitro ADME
Method: The effects of four G-rich phosphodiester oligonucleotides (GROs) on the growth of tumor cells in culture were tested. These oligonucleotides consisted entirely of deoxyguanosine and thymidine and contained at least two contiguous guanosines. For increased stability to serum nucleases, oligonucleotides were modified at the 3′-terminus with a propylamino group. This modification protects the oligonucleotides from degradation in serum containing medium for at least twenty-four hours.

Substance: 5′-GGTGGTGGTGGTTGTGGTGG TGGTGG-3′ [SEQ ID NO:12]
- metastasis, first RCC responder ([1]; 18 months after treatment): single brain metastasis
- disease status, first RCC responder ([1]; 26 months after one seven-day infusion at 10 mg/kg): no evidence of disease
- clinical benefit (CR+PR+SD) ([1]; RCC patients, RECIST): 75%
- response rate (CR+PR) ([1]; RCC patients, continuous i.v. infusion, up to 40 mg/kg/day for up to 7 days, RECIST): 17%
- complete response ([1]; RCC subjects, RECIST): 8.4%
- partial response ([1]; RCC subjects, RECIST): 8.4%
- stable disease for the duration of the study ([1]; RCC subjects, RECIST): 58%
- decrease in the sum of greatest linear dimensions of target lesions from baseline ([1]; second RCC responder, two seven-day infusions at 22 mg/kg): about 70%
- specificity of binding [2]: specificity for nucleolin
- tolerability / toxicity (Phase 1 study, toxicity): well tolerated with no serious toxicity of any type related to drug administration
- stable disease for the duration of the study [3]: 40%
- anti-proliferative response in tumor cells (tumor cells): strong anti-proliferative response
- stability in serum (Stability in serum): extremely stable and resistant to degradation by serum enzymes
